For eight molecules, pest or weed control results are on record in patent US10206394B2, “Herbicidal compounds” (Syngenta Participations AG, priority 2014, dated 2019).

Read-outs that look alike come from different tables or passages of the source.

Common to all, as to assay: Glasshouse assay for herbicidal activity (pre- and post-emergence), percentage phytotoxicity
Holding throughout (format): in vivo

In assay [1] the test system is Alopecurus myosuroides (ALOMY). The conditions noted are these: Alopecurus myosuroides. An outline of the steps:
(§1)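 Sow seed in standard soil in pots; apply test herbicide after 1 day (PRE) or about 12 days (POST). Grow on in the glasshouse, watering twice daily, cool-season species at 20/16 °C and warm-season at 24/18 °C. Score visible damage (0–100%) at 20 or 15 DAA respectively.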

The test system of a further assay is Avena fatua (AVEFA). The conditions noted are these: Avena fatua. In outline: as §1
In assay [2] the test system is Echinochloa crus-galli (ECHCG). To be noted: Echinochloa crus-galli. An outline of the steps:
as §1

The subject of a further assay is Lolium perenne (LOLPE). To be noted: Lolium perenne. An outline of the steps: as §1
[3] abbreviates: post-emergence, 360 h, POST-emergence, rate 250 g/ha, visual score 15 DAA (100%=total damage, 0%=no damage), read-out: Post-emergence herbicidal activity (percentage phytotoxicity) ALOMY POST.
Where [4] appears, read: pre-emergence, 480 h, PRE-emergence, rate 250 g/ha, visual score 20 DAA (100%=total damage, 0%=no damage), read-out: Pre-emergence herbicidal activity (percentage phytotoxicity) ALOMY PRE.
The mark [5] stands for this setting: post-emergence, 360 h, POST-emergence, rate 250 g/ha, visual score 15 DAA (100%=total damage, 0%=no damage), read-out: Post-emergence herbicidal activity (percentage phytotoxicity) AVEFA POST.
[6] abbreviates: pre-emergence, 480 h, PRE-emergence, rate 250 g/ha, visual score 20 DAA (100%=total damage, 0%=no damage), read-out: Pre-emergence herbicidal activity (percentage phytotoxicity) AVEFA PRE.
[7] abbreviates: post-emergence, 360 h, POST-emergence, rate 250 g/ha, visual score 15 DAA (100%=total damage, 0%=no damage), read-out: Post-emergence herbicidal activity (percentage phytotoxicity) ECHCG POST.
Where [8] appears, read: pre-emergence, 480 h, PRE-emergence, rate 250 g/ha, visual score 20 DAA (100%=total damage, 0%=no damage), read-out: Pre-emergence herbicidal activity (percentage phytotoxicity) ECHCG PRE.
The mark [9] stands for this setting: post-emergence, 360 h, POST-emergence, rate 250 g/ha, visual score 15 DAA (100%=total damage, 0%=no damage), read-out: Post-emergence herbicidal activity (percentage phytotoxicity) LOLPE POST.
The mark [10] stands for this setting: pre-emergence, 480 h, PRE-emergence, rate 250 g/ha, visual score 20 DAA (100%=total damage, 0%=no damage), read-out: Pre-emergence herbicidal activity (percentage phytotoxicity) LOLPE PRE.
Setting [11] is: post-emergence, 360 h, 250 g/ha, post-emergence, 15 DAA, visual assessment (100%=total damage, 0%=no damage), read-out: Post-emergence herbicidal activity (percentage phytotoxicity) ALOMY POST.
[12] abbreviates: pre-emergence, 480 h, 250 g/ha, pre-emergence, 20 DAA, visual assessment (100%=total damage, 0%=no damage), read-out: Pre-emergence herbicidal activity (percentage phytotoxicity) ALOMY PRE.
Setting [13] is: post-emergence, 360 h, 250 g/ha, post-emergence, 15 DAA, visual assessment (100%=total damage, 0%=no damage), read-out: Post-emergence herbicidal activity (percentage phytotoxicity) AVEFA POST.
The mark [14] stands for this setting: pre-emergence, 480 h, 250 g/ha, pre-emergence, 20 DAA, visual assessment (100%=total damage, 0%=no damage), read-out: Pre-emergence herbicidal activity (percentage phytotoxicity) AVEFA PRE.
Where [15] appears, read: post-emergence, 360 h, 250 g/ha, post-emergence, 15 DAA, visual assessment (100%=total damage, 0%=no damage), read-out: Post-emergence herbicidal activity (percentage phytotoxicity) ECHCG POST.
Where [16] appears, read: pre-emergence, 480 h, 250 g/ha, pre-emergence, 20 DAA, visual assessment (100%=total damage, 0%=no damage), read-out: Pre-emergence herbicidal activity (percentage phytotoxicity) ECHCG PRE.
Where [17] appears, read: post-emergence, 360 h, 250 g/ha, post-emergence, 15 DAA, visual assessment (100%=total damage, 0%=no damage), read-out: Post-emergence herbicidal activity (percentage phytotoxicity) LOLPE POST.
[18] abbreviates: pre-emergence, 480 h, 250 g/ha, pre-emergence, 20 DAA, visual assessment (100%=total damage, 0%=no damage), read-out: Pre-emergence herbicidal activity (percentage phytotoxicity) LOLPE PRE.

Regarding `C/C=C/c1cc(C)c(C2C(=O)CC(CC(=O)NC(C)C)C2=O)c(C)c1` (stereo not shown) [Compound B245], the pest or weed control at 250 g/ha in assay [1] (setting [3]) was 100%; in assay [1] (setting [4]), 100%; in the assay with Avena fatua (AVEFA) (setting [5]), 100%; in the assay with Avena fatua (AVEFA) (setting [6]), 90%; in assay [2] (setting [7]) it was 100%; in assay [2] (setting [8]), 90%. Also, the pest or weed control at 250 g/ha in the assay with Lolium perenne (LOLPE) (setting [9]) came to 100%; in the assay on Lolium perenne (LOLPE) (setting [10]), 90%.

As to `Cc1cc(C)c(C2C(=O)CC(CC(=O)NCC(F)F)C2=O)c(C)c1` (stereo not shown) [Compound B57], the pest or weed control at 250 g/ha in assay [1] (setting [11]) stood at 70%; in assay [1] (setting [12]), 70%; in the assay with Avena fatua (AVEFA) (setting [13]), 80%; with Avena fatua (AVEFA) (setting [14]), 20%; in assay [2] (setting [15]), 80%; in assay [2] (setting [16]), 90%. Besides, the pest or weed control at 250 g/ha in the assay with Lolium perenne (LOLPE) (setting [17]) and with Lolium perenne (LOLPE) (setting [18]) was 80% throughout.

Take `Cc1cc(C)c(C2C(=O)CC(CC(=O)NCc3ccccc3Br)C2=O)c(C)c1` (stereo not shown) [Compound B22]: the pest or weed control at 250 g/ha amounted to 30% in assay [1] (setting [11]); 30% in assay [1] (setting [12]); 20% in the assay on Avena fatua (AVEFA) (setting [13]); 100% with Avena fatua (AVEFA) (setting [14]); 80% in assay [2] (setting [15]); 90% in assay [2] (setting [16]). For the same molecule, the values for the pest or weed control at 250 g/ha with Lolium perenne (LOLPE) (setting [17]) and in the assay with Lolium perenne (LOLPE) (setting [18]) were 80% and 90%, respectively.

`Cc1cc(-c2ccc(Cl)cn2)cc(C)c1C1C(=O)CC(CC(=O)NCc2cccc(Cl)c2)C1=O` (stereo not shown) [Compound B374]: the pest or weed control at 250 g/ha in assay [1] (post-emergence, 360 h, Rate 250 g/ha, post-emergence, visual assessment 15 DAA, 100%=total damage, 0%=no damage, read-out: Post-emergence herbicidal activity (percentage phytotoxicity) ALOMY POST) was 90%; in assay [1] (pre-emergence, 480 h, Rate 250 g/ha, pre-emergence, visual assessment 20 DAA, 100%=total damage, 0%=no damage, read-out: Pre-emergence herbicidal activity (percentage phytotoxicity) ALOMY PRE), 70%; in the assay on Avena fatua (AVEFA) (post-emergence, 360 h, Rate 250 g/ha, post-emergence, visual assessment 15 DAA, 100%=total damage, 0%=no damage, read-out: Post-emergence herbicidal activity (percentage phytotoxicity) AVEFA POST), 100%; in the assay on Avena fatua (AVEFA) (pre-emergence, 480 h, Rate 250 g/ha, pre-emergence, visual assessment 20 DAA, 100%=total damage, 0%=no damage, read-out: Pre-emergence herbicidal activity (percentage phytotoxicity) AVEFA PRE), 90%; in assay [2] (post-emergence, 360 h, Rate 250 g/ha, post-emergence, visual assessment 15 DAA, 100%=total damage, 0%=no damage, read-out: Post-emergence herbicidal activity (percentage phytotoxicity) ECHCG POST) it was 100%; in assay [2] (pre-emergence, 480 h, Rate 250 g/ha, pre-emergence, visual assessment 20 DAA, 100%=total damage, 0%=no damage, read-out: Pre-emergence herbicidal activity (percentage phytotoxicity) ECHCG PRE), 90%. Further, the pest or weed control at 250 g/ha amounted to 90% in the assay with Lolium perenne (LOLPE) (post-emergence, 360 h, Rate 250 g/ha, post-emergence, visual assessment 15 DAA, 100%=total damage, 0%=no damage, read-out: Post-emergence herbicidal activity (percentage phytotoxicity) LOLPE POST) and 90% in the assay with Lolium perenne (LOLPE) (pre-emergence, 480 h, Rate 250 g/ha, pre-emergence, visual assessment 20 DAA, 100%=total damage, 0%=no damage, read-out: Pre-emergence herbicidal activity (percentage phytotoxicity) LOLPE PRE).

As to `Cc1cc(Br)cc(C)c1C1C(=O)CC(CC(=O)NCC2CC2(F)F)C1=O` (stereo not shown) [Compound B198], the pest or weed control at 250 g/ha stood at 100% in assay [1] (setting [3]); 90% in assay [1] (setting [4]); 100% in the assay with Avena fatua (AVEFA) (setting [5]); 60% in the assay with Avena fatua (AVEFA) (setting [6]); 100% in assay [2] (setting [7]); 80% in assay [2] (setting [8]). Moreover, the pest or weed control at 250 g/ha amounted to 100% in the assay with Lolium perenne (LOLPE) (setting [9]) and 70% with Lolium perenne (LOLPE) (setting [10]).

As to `Cc1cc(C)c(C2C(=O)CC(CC(=O)N3CC(C)CC(C)C3)C2=O)c(C)c1` (stereo not shown) [Compound A173], the pest or weed control at 250 g/ha in assay [1] (post-emergence, 360 h, post-emergence, 250 g/ha, 15 DAA, visual score (100%=total damage; 0%=no damage), read-out: ALOMY POST herbicidal activity (percentage phytotoxicity)) came to 20%; in assay [1] (pre-emergence, 480 h, pre-emergence, 250 g/ha, 20 DAA, visual score (100%=total damage; 0%=no damage), read-out: ALOMY PRE herbicidal activity (percentage phytotoxicity)), 50%; in the assay with Avena fatua (AVEFA) (post-emergence, 360 h, post-emergence, 250 g/ha, 15 DAA, visual score (100%=total damage; 0%=no damage), read-out: AVEFA POST herbicidal activity (percentage phytotoxicity)), 30%; with Avena fatua (AVEFA) (pre-emergence, 480 h, pre-emergence, 250 g/ha, 20 DAA, visual score (100%=total damage; 0%=no damage), read-out: AVEFA PRE herbicidal activity (percentage phytotoxicity)) it was 10%; in assay [2] (post-emergence, 360 h, post-emergence, 250 g/ha, 15 DAA, visual score (100%=total damage; 0%=no damage), read-out: ECHCG POST herbicidal activity (percentage phytotoxicity)) it was 30%; in assay [2] (pre-emergence, 480 h, pre-emergence, 250 g/ha, 20 DAA, visual score (100%=total damage; 0%=no damage), read-out: ECHCG PRE herbicidal activity (percentage phytotoxicity)), 10%. The pest or weed control at 250 g/ha came out at 60% in the assay on Lolium perenne (LOLPE) (post-emergence, 360 h, post-emergence, 250 g/ha, 15 DAA, visual score (100%=total damage; 0%=no damage), read-out: LOLPE POST herbicidal activity (percentage phytotoxicity)) and 80% with Lolium perenne (LOLPE) (pre-emergence, 480 h, pre-emergence, 250 g/ha, 20 DAA, visual score (100%=total damage; 0%=no damage), read-out: LOLPE PRE herbicidal activity (percentage phytotoxicity)).

Turning to `CCc1cc(C)cc(C)c1C1C(=O)CC(CC(=O)NCc2cccc(Cl)c2)C1=O` (stereo not shown) [Compound B251], the pest or weed control at 250 g/ha in assay [1] (setting [3]) was 100%; in assay [1] (setting [4]), 90%; in the assay on Avena fatua (AVEFA) (setting [5]), 90%; in the assay on Avena fatua (AVEFA) (setting [6]), 60%; in assay [2] (setting [7]), 100%; in assay [2] (setting [8]) it was 90%. The figures for the pest or weed control at 250 g/ha in the assay with Lolium perenne (LOLPE) (setting [9]) and in the assay with Lolium perenne (LOLPE) (setting [10]) were 100% and 90%, respectively.

`Cc1cc(-c2ncc(Cl)cc2F)cc(C)c1C1C(=O)CC(CC(=O)NCC2CC2C(F)F)C1=O` (stereo not shown) [Compound B143]: the pest or weed control at 250 g/ha in assay [1] (setting [11]) was 100%; in assay [1] (setting [12]), 90%; in the assay with Avena fatua (AVEFA) (setting [13]), 100%; in the assay on Avena fatua (AVEFA) (setting [14]), 90%; in assay [2] (setting [15]), 100%; in assay [2] (setting [16]) it was 100%. The pest or weed control at 250 g/ha with Lolium perenne (LOLPE) (setting [17]) and in the assay on Lolium perenne (LOLPE) (setting [18]) was 100% throughout.
